{"source": "PubChem BioAssay (NCI)", "assay_in_all_cases": "NCI anticancer screen, dose series, 48 h", "key": {"786-0 renal": {"tested_on": "786-0 renal"}, "UACC-62 melanoma": {"tested_on": "UACC-62 melanoma"}, "HCT-15 colon": {"tested_on": "HCT-15 colon"}, "OVCAR-8 ovarian": {"tested_on": "OVCAR-8 ovarian"}, "LXFL 529 NSCLC": {"tested_on": "LXFL 529 NSCLC"}, "SK-MEL-28 melanoma": {"tested_on": "SK-MEL-28 melanoma"}, "M19-MEL melanoma": {"tested_on": "M19-MEL melanoma"}, "UO-31 renal": {"tested_on": "UO-31 renal"}, "MCF7 breast": {"tested_on": "MCF7 breast"}, "T-47D breast": {"tested_on": "T-47D breast"}}, "note": "Several values for one entry are separate records, joined by “and”; a condition that tells them apart may be missing. Identical values can stand only once.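 A five-concentration, 48-hour dose response in 96-well plates underlies each endpoint, interpolated linearly between surrounding concentrations. GI50 is the concentration that inhibits growth by half. TGI: concentration producing complete growth inhibition.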"}
{"compound": "CSC(=Nc1ccc([N+](=O)[O-])cc1C#N)NC(=O)c1ccccc1", "values": [{"measurement": "TGI", "setting": "786-0 renal", "value": "> 100", "unit": "µM"}, {"measurement": "TGI", "setting": "UACC-62 melanoma", "value": "> 100", "unit": "µM"}, {"measurement": "TGI", "setting": "HCT-15 colon", "value": "> 100", "unit": "µM"}, {"measurement": "TGI", "setting": "OVCAR-8 ovarian", "value": "> 100", "unit": "µM"}, {"measurement": "TGI", "setting": "LXFL 529 NSCLC", "value": "> 100", "unit": "µM"}, {"measurement": "TGI", "setting": "SK-MEL-28 melanoma", "value": "> 100", "unit": "µM"}, {"measurement": "TGI", "setting": "M19-MEL melanoma", "value": "> 100", "unit": "µM"}]}
{"compound": "O=S1(=O)[C@H](c2ccccc2)c2c(-c3ccccc3)sc(-c3ccccc3)c2[C@@H]1c1ccccc1", "values": [{"measurement": "TGI", "setting": "786-0 renal", "value": "> 100", "unit": "µM"}, {"measurement": "TGI", "setting": "UACC-62 melanoma", "value": "> 100", "unit": "µM"}, {"measurement": "TGI", "setting": "HCT-15 colon", "value": "> 100", "unit": "µM"}, {"measurement": "TGI", "setting": "OVCAR-8 ovarian", "value": "> 100", "unit": "µM"}, {"measurement": "TGI", "setting": "LXFL 529 NSCLC", "value": "> 100", "unit": "µM"}, {"measurement": "TGI", "setting": "SK-MEL-28 melanoma", "value": "> 100", "unit": "µM"}, {"measurement": "TGI", "setting": "UO-31 renal", "value": "> 100", "unit": "µM"}, {"measurement": "TGI", "setting": "M19-MEL melanoma", "value": "> 100", "unit": "µM"}]}
{"compound": "CCC(=O)N1C(=S)SC[C@H]1C(=O)OC", "values": [{"measurement": "TGI", "setting": "786-0 renal", "value": "> 100", "unit": "µM"}, {"measurement": "TGI", "setting": "UACC-62 melanoma", "value": "> 100", "unit": "µM"}, {"measurement": "TGI", "setting": "OVCAR-8 ovarian", "value": "> 100", "unit": "µM"}, {"measurement": "TGI", "setting": "LXFL 529 NSCLC", "value": "> 100", "unit": "µM"}, {"measurement": "TGI", "setting": "SK-MEL-28 melanoma", "value": "> 100", "unit": "µM"}, {"measurement": "TGI", "setting": "UO-31 renal", "value": "> 100", "unit": "µM"}, {"measurement": "TGI", "setting": "M19-MEL melanoma", "value": "> 100", "unit": "µM"}]}
{"compound": "CN(c1ccccc1)c1nc(=[N+](C)C)ss1", "values": [{"measurement": "TGI", "setting": "786-0 renal", "value": "> 100", "unit": "µM"}, {"measurement": "TGI", "setting": "UACC-62 melanoma", "value": "> 100", "unit": "µM"}, {"measurement": "TGI", "setting": "HCT-15 colon", "value": "> 100", "unit": "µM"}, {"measurement": "TGI", "setting": "OVCAR-8 ovarian", "value": "> 100", "unit": "µM"}, {"measurement": "TGI", "setting": "LXFL 529 NSCLC", "value": "> 100", "unit": "µM"}, {"measurement": "TGI", "setting": "SK-MEL-28 melanoma", "value": "> 100", "unit": "µM"}, {"measurement": "TGI", "setting": "UO-31 renal", "value": "> 100", "unit": "µM"}, {"measurement": "TGI", "setting": "M19-MEL melanoma", "value": "> 100", "unit": "µM"}]}
{"compound": "CS(=O)(=O)N(CCC#N)c1ccc(/C=C2\\N=C(c3ccccc3Cl)OC2=O)cc1", "values": [{"measurement": "TGI", "setting": "786-0 renal", "value": "> 100", "unit": "µM"}, {"measurement": "TGI", "setting": "UACC-62 melanoma", "value": "> 100", "unit": "µM"}, {"measurement": "TGI", "setting": "HCT-15 colon", "value": "> 100", "unit": "µM"}, {"measurement": "TGI", "setting": "OVCAR-8 ovarian", "value": "> 100", "unit": "µM"}, {"measurement": "TGI", "setting": "LXFL 529 NSCLC", "value": "> 100", "unit": "µM"}, {"measurement": "TGI", "setting": "SK-MEL-28 melanoma", "value": "> 100", "unit": "µM"}, {"measurement": "TGI", "setting": "UO-31 renal", "value": "> 100", "unit": "µM"}, {"measurement": "TGI", "setting": "M19-MEL melanoma", "value": "> 100", "unit": "µM"}]}
{"compound": "[N-]=[N+]=NC1C(Cl)C(=O)NC(=O)N1[C@H]1C[C@H](O)[C@@H](CO)O1", "note": "(some centres undefined)", "values": [{"measurement": "TGI", "setting": "786-0 renal", "value": "> 100", "unit": "µM"}, {"measurement": "TGI", "setting": "UACC-62 melanoma", "value": "> 100", "unit": "µM"}, {"measurement": "TGI", "setting": "OVCAR-8 ovarian", "value": "> 100", "unit": "µM"}, {"measurement": "TGI", "setting": "LXFL 529 NSCLC", "value": "> 100", "unit": "µM"}, {"measurement": "TGI", "setting": "SK-MEL-28 melanoma", "value": "> 100", "unit": "µM"}, {"measurement": "TGI", "setting": "UO-31 renal", "value": "> 100", "unit": "µM"}, {"measurement": "GI50", "setting": "M19-MEL melanoma", "value": 52.1, "unit": "µM"}, {"measurement": "TGI", "setting": "M19-MEL melanoma", "value": "> 100", "unit": "µM"}]}
{"compound": "CN(C)CCN1C(=O)c2cccc3cc(N)cc(c23)C1=O", "values": [{"measurement": "GI50", "setting": "786-0 renal", "value": 4.16, "unit": "µM"}, {"measurement": "TGI", "setting": "786-0 renal", "value": "> 81.6 µM and 23 µM"}, {"measurement": "GI50", "setting": "MCF7 breast", "value": 1.38, "unit": "µM"}, {"measurement": "TGI", "setting": "MCF7 breast", "value": "22.2 µM and 18.5 µM"}, {"measurement": "GI50", "setting": "UACC-62 melanoma", "value": 2.89, "unit": "µM"}, {"measurement": "TGI", "setting": "UACC-62 melanoma", "value": "11.7 µM and 8.02 µM"}, {"measurement": "TGI", "setting": "HCT-15 colon", "value": "> 50 µM and 16 µM"}, {"measurement": "GI50", "setting": "OVCAR-8 ovarian", "value": 2.46, "unit": "µM"}, {"measurement": "TGI", "setting": "OVCAR-8 ovarian", "value": "30.5 µM and 7.38 µM"}, {"measurement": "GI50", "setting": "T-47D breast", "value": 3.66, "unit": "µM"}, {"measurement": "TGI", "setting": "T-47D breast", "value": "> 57.1 µM and 32.4 µM"}, {"measurement": "TGI", "setting": "SK-MEL-28 melanoma", "value": "27.8 µM and 19.6 µM"}, {"measurement": "GI50", "setting": "UO-31 renal", "value": 2.09, "unit": "µM"}, {"measurement": "TGI", "setting": "UO-31 renal", "value": "43.1 µM and 12.8 µM"}, {"measurement": "TGI", "setting": "M19-MEL melanoma", "value": 12.5, "unit": "µM"}]}
{"compound": "CCOc1ccc2c(c1)[n+]([O-])c(C(N)=O)c(N)[n+]2[O-]", "values": [{"measurement": "TGI", "setting": "786-0 renal", "value": "> 100", "unit": "µM"}, {"measurement": "TGI", "setting": "OVCAR-8 ovarian", "value": "> 100", "unit": "µM"}, {"measurement": "TGI", "setting": "LXFL 529 NSCLC", "value": "> 100", "unit": "µM"}, {"measurement": "TGI", "setting": "SK-MEL-28 melanoma", "value": "> 100", "unit": "µM"}, {"measurement": "TGI", "setting": "UO-31 renal", "value": "> 100", "unit": "µM"}, {"measurement": "TGI", "setting": "M19-MEL melanoma", "value": "> 100", "unit": "µM"}]}
{"compound": "O=C(c1ccccc1)[C@H]1Nc2ccc(Cl)cc2[C@H]2c3ccccc3O[C@H]21", "values": [{"measurement": "TGI", "setting": "786-0 renal", "value": 30.6, "unit": "µM"}, {"measurement": "TGI", "setting": "UACC-62 melanoma", "value": 28.6, "unit": "µM"}, {"measurement": "TGI", "setting": "HCT-15 colon", "value": 28.4, "unit": "µM"}, {"measurement": "TGI", "setting": "OVCAR-8 ovarian", "value": 34.6, "unit": "µM"}, {"measurement": "TGI", "setting": "LXFL 529 NSCLC", "value": 28.5, "unit": "µM"}, {"measurement": "TGI", "setting": "SK-MEL-28 melanoma", "value": 25.8, "unit": "µM"}, {"measurement": "TGI", "setting": "UO-31 renal", "value": 18.2, "unit": "µM"}, {"measurement": "TGI", "setting": "M19-MEL melanoma", "value": 39.5, "unit": "µM"}]}
{"compound": "[O-]c1ccccc1C=NCCN=Cc1ccccc1[O-].[O]=[U+2]=[O]", "values": [{"measurement": "GI50", "setting": "786-0 renal", "value": 18.6, "unit": "µM"}, {"measurement": "TGI", "setting": "786-0 renal", "value": 39.2, "unit": "µM"}, {"measurement": "GI50", "setting": "UACC-62 melanoma", "value": 37.4, "unit": "µM"}, {"measurement": "TGI", "setting": "UACC-62 melanoma", "value": "> 74.3", "unit": "µM"}, {"measurement": "GI50", "setting": "HCT-15 colon", "value": 36.8, "unit": "µM"}, {"measurement": "TGI", "setting": "HCT-15 colon", "value": "> 100", "unit": "µM"}, {"measurement": "GI50", "setting": "OVCAR-8 ovarian", "value": 31.2, "unit": "µM"}, {"measurement": "TGI", "setting": "OVCAR-8 ovarian", "value": "> 94.6", "unit": "µM"}, {"measurement": "GI50", "setting": "LXFL 529 NSCLC", "value": 17.8, "unit": "µM"}, {"measurement": "TGI", "setting": "LXFL 529 NSCLC", "value": 53.3, "unit": "µM"}, {"measurement": "GI50", "setting": "SK-MEL-28 melanoma", "value": "> 50.9", "unit": "µM"}, {"measurement": "TGI", "setting": "SK-MEL-28 melanoma", "value": "> 78.7", "unit": "µM"}, {"measurement": "GI50", "setting": "UO-31 renal", "value": 29.8, "unit": "µM"}, {"measurement": "TGI", "setting": "UO-31 renal", "value": "> 60.6", "unit": "µM"}, {"measurement": "GI50", "setting": "M19-MEL melanoma", "value": 32.2, "unit": "µM"}, {"measurement": "TGI", "setting": "M19-MEL melanoma", "value": "> 66.3", "unit": "µM"}]}
{"compound": "O=C1C2C3SC(c4cc5ccccc5cc43)C2C(=O)N1c1ccccc1", "note": "(centres undefined)", "values": [{"measurement": "TGI", "setting": "786-0 renal", "value": "> 100", "unit": "µM"}, {"measurement": "TGI", "setting": "UACC-62 melanoma", "value": "> 100", "unit": "µM"}, {"measurement": "TGI", "setting": "HCT-15 colon", "value": "> 100", "unit": "µM"}, {"measurement": "TGI", "setting": "OVCAR-8 ovarian", "value": "> 100", "unit": "µM"}, {"measurement": "TGI", "setting": "LXFL 529 NSCLC", "value": "> 100", "unit": "µM"}, {"measurement": "TGI", "setting": "SK-MEL-28 melanoma", "value": "> 100", "unit": "µM"}, {"measurement": "TGI", "setting": "UO-31 renal", "value": "> 100", "unit": "µM"}, {"measurement": "TGI", "setting": "M19-MEL melanoma", "value": "> 100", "unit": "µM"}]}
